# Laboratory results reported in US20250369031A1, “METHODS OF DETERMINING CERULOPLASMIN ACTIVITY AND APPLICATIONS THEREOF” (ACADEMIA SINICA, priority 2022, published 2025).
# Legend:
# Type in all cases: biochemical
# serum oxidases [1] = test: Library screening with serum, ESI-MS monitoring of oxidized products; conditions: acetate buffer pH 5.0, 37° C., 1 h
# Procedure: The chemical library dissolved in DMSO individually to give stock concentrations of 1 mg/mL. Each chemical was placed in individual well and incubated with serum sample in acetate buffer (0.1M, pH 5.0) at 37° C. for 1 h. Additional DMSO was provided to inhibit oxidase activity. High-resolution ESI mass spectra (Bruker Daltonics spectrometer) was utilized to monitor the oxidized products.
# To screen for suitable compounds as Cp substrates for MS analysis, an approach of combinatorial library screening in primary MS analysis was used to find out oxidized products and their relationship with initial substrates. Briefly, a platform for rapidly and conveniently screening various small molecules was established. In the chemical library collection as obtained, including natural products, synthetic compounds and heterocyclic molecules, each member was parallelly incubated with a certain small amount of serum for a desired reaction time. After quenching each enzyme reaction, analysis of the reaction products with ESI-MS was performed. Hits with reliable, major, and distinct oxidized product peaks in ESI-MS analysis were selected for further studies (FIG. 1).
# ceruloplasmin [2] = biological target: T1, ceruloplasmin (Homo sapiens, UniProt P00450); test: Cp-depletion test (serum filtered to remove proteins larger than 100 kDa), LCMS; set-up: Ceruloplasmin is made in the liver and then secreted into the blood; from tissue; host or cells: serum / plasma (normal adult, newborn; Cp-depleted serum by 100 kDa filtration as comparison); conditions: Cp-depleted serum 5 μL, 30 min, 37° C.
# T1 sequence (P00450 20-1065): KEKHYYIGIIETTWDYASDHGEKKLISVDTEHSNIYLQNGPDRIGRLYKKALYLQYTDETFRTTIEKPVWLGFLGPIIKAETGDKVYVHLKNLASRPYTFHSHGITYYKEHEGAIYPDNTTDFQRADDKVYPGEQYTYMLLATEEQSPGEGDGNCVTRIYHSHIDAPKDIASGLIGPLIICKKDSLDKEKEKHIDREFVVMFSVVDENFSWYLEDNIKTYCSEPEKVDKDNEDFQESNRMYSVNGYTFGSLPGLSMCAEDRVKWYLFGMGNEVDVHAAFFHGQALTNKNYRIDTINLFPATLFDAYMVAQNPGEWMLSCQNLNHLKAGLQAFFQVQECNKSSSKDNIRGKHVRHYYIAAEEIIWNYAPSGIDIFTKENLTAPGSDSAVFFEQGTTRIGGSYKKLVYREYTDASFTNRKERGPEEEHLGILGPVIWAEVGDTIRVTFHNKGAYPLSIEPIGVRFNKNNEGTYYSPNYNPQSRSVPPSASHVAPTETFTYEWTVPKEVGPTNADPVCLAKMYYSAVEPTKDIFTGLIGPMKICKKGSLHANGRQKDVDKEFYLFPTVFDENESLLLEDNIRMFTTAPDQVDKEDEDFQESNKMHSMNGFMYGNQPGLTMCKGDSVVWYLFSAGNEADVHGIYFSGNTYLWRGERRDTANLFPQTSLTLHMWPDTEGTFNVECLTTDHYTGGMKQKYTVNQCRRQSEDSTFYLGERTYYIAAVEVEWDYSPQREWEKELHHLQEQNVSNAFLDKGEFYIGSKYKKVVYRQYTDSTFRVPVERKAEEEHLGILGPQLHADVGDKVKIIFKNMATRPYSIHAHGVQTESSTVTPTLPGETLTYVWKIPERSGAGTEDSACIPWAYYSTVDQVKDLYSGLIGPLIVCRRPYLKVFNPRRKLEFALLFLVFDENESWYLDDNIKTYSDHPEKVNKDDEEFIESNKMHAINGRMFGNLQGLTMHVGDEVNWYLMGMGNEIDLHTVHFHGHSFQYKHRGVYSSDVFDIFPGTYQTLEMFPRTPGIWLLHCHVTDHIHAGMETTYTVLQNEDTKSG
# Procedure: Normal adult serum and plasma were controls. After incubation, the DMSO quenched mixture were 100-folds diluted and detected by LCMS.
# The Cp depletion serum was obtained by size selection method. Briefly, the centrifuge filter was applied in normal serum to eliminate those proteins larger than 100 kDa, including Cp (˜130 kDa).
# ceruloplasmin [3] = biological target: T1, ceruloplasmin; test: Cp activity in newborn plasma, LCMS; set-up: Ceruloplasmin is made in the liver and then secreted into the blood; from tissue; host or cells: serum / plasma (normal adult, newborn; Cp-depleted serum by 100 kDa filtration as comparison); conditions: without dilution
# From the text: The DMSO quenched mixture were detected by LCMS without dilution.
# serum oxidases [4] = test: LC-MS/MS based serum oxidase activity assay
# Procedure: Samples were detected by LC-ESI-MS on a Velos Pro dual-pressure linear ion trap mass spectrometer (Thermo Fisher Scientific, San Jose, CA) equipped with an Ultimate 3000 RSLC system from Dionex (Dionex Corporation, Sunnyvale, CA), using a Xbridge C18 (HPLC column 1 mm×15 cm i.d., 3.5 μm particle size, 130 Å pore size). Briefly, the gradient employed was 50% buffer B at 5 min to 98% buffer B at 23 min with a flow rate of 50 μL/min, where buffer A was 0.1% formic acid/H2O and buffer B was 0.1% formic acid/acetonitrile. All spectra were acquired in the mass range m/z 200-2000. Electrospray voltage was maintained at 4.0 kV and capillary temperature was set at 275° C.
# The stock solution of modified amino carbazoles (125 μM, 20 μL) were incubated with 5 μL of serum (estimate<10 nM of serum oxidases) in sodium acetate buffer (0.1M, pH 5.0, 5 μL) at 37° C. for 30 min. The serum oxidase oxidation was quenched by DMSO (90 μL), followed detection of LC-MS/MS.
# The amount of the oxidized product was determined according to the area under the peak by integration. The specific Cp activity unit was calculated by the formula: Peak area of oxidized product MS2 ion/serum volume (μL).
# The addition of DMSO was to quench the serum enzyme activity. After centrifugation, the supernatant of the mixture was detected by LC-MS/MS.
# ceruloplasmin [5] = biological target: T1, ceruloplasmin; test: Ceruloplasmin spike-in experiment in normal serum, LC-MS/MS
# Procedure: To understand the relation between ceruloplasmin and serum oxidases and the reactivity of modified substrates and ceruloplasmin, spike-in experiment was performed. […] The assay was incubated at 37° C. for 30 mins, and quenching the reaction by DMSO. The final products were analyzed by LC-MS/MS.
# ceruloplasmin [6] = biological target: T1, ceruloplasmin; test: Colorimetric methods for ceruloplasmin oxidative activity; set-up: Ceruloplasmin is made in the liver and then secreted into the blood; from tissue; host or cells: serum / plasma (normal adult, newborn; Cp-depleted serum by 100 kDa filtration as comparison); conditions: serum volume small than 10 μL
# From the text: FIGS. 8A and 8B show the limitations of detection by current methods known in the art. […] The specific activity units of Cp are not reliable in lower volume of serum.
# The limitations of current methods and available commercial kits were described. In current method, the colorimetric methods using p-phenylenediamine (PPD) and o-dianisidine dihydrochloride (ODD) as substrates are used for quantification of ceruloplasmin oxidative activity. […] The activity of ceruloplasmin were positively correlated to absorbance. However, the correlation of absorbance and serum volume small than 10 μL was poor (FIG. 8).
smiles,measurement,setting,value
"NCCc1c[nH]c2ccc(O)cc12 [ACK-1000, Serotonin (or 5-Hydroxytryptamine)]",products generated when reacting with serum oxidases,serum oxidases [1],specific oxidized products
"CCCCn1c2ccccc2c2cc(N)ccc21 [ACK-1001, 9-buyl-9H-carbazol-3-amine]",products generated when reacting with serum oxidases,serum oxidases [1],specific oxidized products
"CCn1c2ccccc2c2cc(N)ccc21 [ACK-1006, 9-ethyl-9H-carbazol-3-amine]",oxidized product detected with Cp depleted serum,ceruloplasmin [2],trace amount
same,LCMS signal of oxidized substrate in new born plasma,"ceruloplasmin [3]; new born plasma 5 μL, 30 min, 37° C.",> 10^5
same,signal of oxidative substrate in CP-depletion plasma compared with newborn plasma,ceruloplasmin [3],significantly lower
same,signal intensity of m/z transition of the oxidized product,"serum oxidases [4]; after 1000-fold dilution, serum less than 5 μL",> 10^3
same,reaction time at which oxidized product reached highest amount,serum oxidases [4]; time-dependent assay,30 min
same,oxidation of substrate by recombinant ceruloplasmin,ceruloplasmin [5],could be oxidized by recombinant ceruloplasmin
"COc1cc(-c2ccc(N)c(OC)c2)ccc1N.Cl.Cl [o-dianisidine dihydrochloride (ODD), o-dianisidine dihydrochloride]",correlation of absorbance and serum volume,ceruloplasmin [6],poor
"Nc1ccc(N)cc1 [p-phenylenediamine (PPD), p-phenylenediamine]",correlation of absorbance and serum volume,ceruloplasmin [6],poor
